According to patent publication US12083115B2, “Methods for treating neurological symptoms associated with lysosomal storage diseases” (Genzyme Corporation, priority 2020, dated 2024):
Like-named read-outs stand apart in the source and are kept apart here.

Tests used:
Assay type in all cases: in vivo, human
[1] = Clinical study in GD-3 patients (LEAP): Compound 2 concentrations in plasma and CSF
From the text: The endpoint assessments are related to safety, CSF biomarkers, pharmacokinetics/pharmacodynamics, systemic disease, and neuroimaging and neurological function (CNS/neurological manifestations).
Patients 18 years of age or older with a clinical diagnosis of GD3 and documented deficiency of acid beta-glucosidase activity having received treatment with ERT for at least 3 years and with imiglucerase (Cerezyme) at a stable monthly dose for at least 6 months prior to enrollment were included in the study. Patients must have reached the following GD therapeutic goals: hemoglobin level of ≥11.0 g/dL for females and ≥12.0 g/dL for males; platelet count 100 000/mm^3; spleen volume <10 multiples of normal (MN), or total splenectomy (provided the splenectomy occurred ≥3 years prior to randomization); liver volume <1.5 MN; and no bone crisis and free of symptomatic bone disease such as bone pain attributable to osteonecrosis and/or pathological fractures within the last year. Patients must have GD3 featuring oculomotor apraxia (supranuclear gaze palsy) characterized by a horizontal saccade abnormality.
During the study patients were evaluated for safety and tolerability, CSF and plasma biomarkers (glucosylceramide, GL-1; glucosylsphingosine, lyso-GL1), pharmacokinetics, markers for systemic disease (spleen and liver volume measured by magnetic resonance imaging (MRI), platelet count, hemoglobin levels), indicia of interstitial lung disease (high resolution pulmonary computed tomography (CT)), and horizontal saccadic eye movement. In addition, exploratory biomarkers were quantified in CSF of GD3 patients: ceramide (the precursor of GL-1), chitotriosidase (CHITO), GM3, and GPNMB. Symptoms of ataxia were measured using the SARA scale, neurological symptoms were measured using the trail making test, and functional MRI was used to assess neural connectivity in the brain.
It is believed that this is due to either compliance or dosing errors, and therefore, analysis is repeated without Patient 5's Week 26 and 52 data included.

[2] = Study 2: ascending repeated-dose PK in healthy adults; conditions: for AUC0-24, Geometric mean / AUC0-24, Mean / Cmax, Geometric mean / Cmax, Mean / tmax, median / CLR(0-24), Mean / CLss/F, Geometric mean / CLss/F, Mean / Ctrough, Geometric mean / Ctrough, Mean / CLR(0-24), Geometric mean / half-life: N = 9; for half-life: plasma
Description: (§1) The study enrolled and randomized 36 healthy adults (19 men and 17 women) (n=9 each to group).
(§2) Pharmacodynamic endpoints (plasma GL-1, GL-3, and GM3 concentrations) were assessed on Days 1-5, 8, 11, 13, and 14, at 0 hours […]; and on Day 15, at 24 hours after the Day 14 dose.

[3] = tested on: plasma GL-3 (globotriaosylceramide); test: Study 2: plasma GL-3 pharmacodynamics
Description: as §1, §2

[4] = plasma, Day 1, N = 11, 15 mg/day + imiglucerase
[5] = repeated once-daily doses from 5-20 mg

CC(C)(NC(=O)O[C@@H]1CN2CCC1CC2)c1csc(-c2ccc(F)cc2)n1 [Compound 2, (S)-quinuclidin-3-yl 2-(2-(4-fluorophenyl)thiazol-4-yl)propan-2-ylcarbamate]
Concentration 2-4 hours post dose (mean ± SD) ([1]; CSF, Day 1, N = 6, 15 mg/day + imiglucerase): <LLOQ
Concentration 2-4 hours post dose (mean ± SD) ([1]; CSF, Week 4, N = 6, 15 mg/day + imiglucerase): 4.56 ± 1.20 ng/mL
Concentration 2-4 hours post dose (mean ± SD) ([1]; CSF, Week 4, N = 10 (Patient 5 excluded), 15 mg/day + imiglucerase): 6.63 ± 2.42 ng/mL
Concentration 2-4 hours post dose ([1]; CSF, Week 4, Patient 5 Only): 3.05 ng/mL
Concentration 2-4 hours post dose (mean) ([1]; CSF, Week 26, Excluding Patient 5, 15 mg/day + imiglucerase): 6.13 ng/mL
Concentration 2-4 hours post dose (mean ± SD) ([1]; CSF, Week 26, N = 6, 15 mg/day + imiglucerase): 5.26 ± 2.49 ng/mL
Concentration 2-4 hours post dose (mean ± SD) ([1]; CSF, Week 26, N = 8 (Patient 5 excluded), 15 mg/day + imiglucerase): 6.77 ± 1.96 ng/mL
Concentration 2-4 hours post dose ([1]; CSF, Week 26, Patient 5 Only): 1.77 ng/mL
Concentration 2-4 hours post dose (mean) ([1]; CSF, Week 52, Excluding Patient 5, 15 mg/day + imiglucerase): 5.32 ng/mL
Concentration 2-4 hours post dose (mean ± SD) ([1]; CSF, Week 52, N = 6, 15 mg/day + imiglucerase): 4.43 ± 3.23 ng/mL
Concentration 2-4 hours post dose (mean ± SD) ([1]; CSF, Week 52, N = 10 (Patient 5 excluded), 15 mg/day + imiglucerase): 6.14 ± 3.44 ng/mL
Concentration 2-4 hours post dose ([1]; CSF, Week 52, Patient 5 Only): <LLOQ
steady state concentration reached in plasma and CSF ([1]; GD3 patients, 15 mg/day + imiglucerase): ≤ 4 Week
plasma and CSF concentrations under co-treatment with CYP3A4 inducer rifampicin ([1]; Patient 1, 52-week measurement, rifampicin Week 39 to Week 51): significant drop in plasma and CSF concentrations
lower concentrations of Compound 2 in plasma and CSF ([1]; Patient 5, Week 26 (compliance or dosing errors believed)): about 50%
concentrations of Compound 2 in plasma and CSF ([1]; Patient 5, Week 52): undetectable
Concentration 2-4 hours post dose (mean ± SD) ([1]; Plasma, Week 4, N = 10 (Patient 5 excluded), 15 mg/day + imiglucerase): 116 ± 48.1 ng/mL
Concentration 2-4 hours post dose ([1]; Plasma, Week 4, Patient 5 Only): 102 ng/mL
Concentration 2-4 hours post dose (mean ± SD) ([1]; Plasma, Week 26, N = 10 (Patient 5 excluded), 15 mg/day + imiglucerase): 120 ± 40.1 ng/mL
Concentration 2-4 hours post dose ([1]; Plasma, Week 26, Patient 5 Only): 53.3 ng/mL
Concentration 2-4 hours post dose (mean ± SD) ([1]; Plasma, Week 52, N = 10 (Patient 5 excluded), 15 mg/day + imiglucerase): 114 ± 65.8 ng/mL
Concentration 2-4 hours post dose ([1]; Plasma, Week 52, Patient 5 Only): <LLOQ
crossing of the blood-brain barrier ([1]; from plasma and CSF concentrations, N = 6, 15 mg/day + imiglucerase): effectively cross the blood-brain barrier in all patients
Concentration 2-4 hours post dose (mean ± SD) ([1]; plasma, Day 1, N = 6, 15 mg/day + imiglucerase): 39.7 ± 12.6 ng/mL
AUC0-24 (mean ± SD) [1, 4]: 851 ± 282 ng·h/mL
Cmax (mean ± SD) [1, 4]: 58.1 ± 26.4 ng/mL
Concentration 2-4 hours post dose (mean ± SD) ([1]; plasma, Week 4, N = 6, 15 mg/day + imiglucerase): 92.3 ± 36.4 ng/mL
Concentration 2-4 hours post dose (mean) ([1]; plasma, Week 26, Excluding Patient 5, 15 mg/day + imiglucerase): 112 ng/mL
Concentration 2-4 hours post dose (mean ± SD) ([1]; plasma, Week 26, N = 6, 15 mg/day + imiglucerase): 102.0 ± 49.5 ng/mL
Concentration 2-4 hours post dose (mean) ([1]; plasma, Week 52, Excluding Patient 5, 15 mg/day + imiglucerase): 84 ng/mL
Concentration 2-4 hours post dose (mean ± SD) ([1]; plasma, Week 52, N = 6, 15 mg/day + imiglucerase): 69.8 ± 58.3 ng/mL
Ctrough values over time ([2]; 5, 10, or 20 mg once daily for 14 days): reached a plateau after Day 5
median time of plasma Cmax ([2]; 5, 10, or 20 mg once daily for 14 days, Days 1 and 14): 2 to 5 h
AUC0-24, Geometric mean ([2]; Day 1, 5 mg once daily): 292 ng·h/mL
AUC0-24, Mean ([2]; Day 1, 5 mg once daily): 296 ng·h/mL
Cmax, Geometric mean ([2]; Day 1, 5 mg once daily): 18.2 ng/mL
Cmax, Mean ([2]; Day 1, 5 mg once daily): 18.5 ng/mL
tmax, median ([2]; Day 1, 5 mg once daily): 5.00 h
AUC0-24, Geometric mean ([2]; Day 1, 10 mg once daily): 623 ng·h/mL
AUC0-24, Mean ([2]; Day 1, 10 mg once daily): 635 ng·h/mL
Cmax, Geometric mean ([2]; Day 1, 10 mg once daily): 37.8 ng/mL
Cmax, Mean ([2]; Day 1, 10 mg once daily): 38.5 ng/mL
tmax, median ([2]; Day 1, 10 mg once daily): 3.00 h
AUC0-24, Geometric mean ([2]; Day 1, 20 mg once daily): 1,080 ng · h/mL
AUC0-24, Mean ([2]; Day 1, 20 mg once daily): 1,100 ng · h/mL
Cmax, Geometric mean ([2]; Day 1, 20 mg once daily): 66.5 ng/mL
Cmax, Mean ([2]; Day 1, 20 mg once daily): 68.0 ng/mL
tmax, median ([2]; Day 1, 20 mg once daily): 3.07 h
AUC0-24, Geometric mean ([2]; Day 14, 5 mg once daily): 632 ng·h/mL
AUC0-24, Mean ([2]; Day 14, 5 mg once daily): 642 ng·h/mL
CLR(0-24), Mean ([2]; Day 14, 5 mg once daily): 1.55 L/h
CLss/F, Geometric mean ([2]; Day 14, 5 mg once daily): 5.9 L/h
CLss/F, Mean ([2]; Day 14, 5 mg once daily): 5.98 L/h
Cmax, Geometric mean ([2]; Day 14, 5 mg once daily): 36.5 ng/mL
Cmax, Mean ([2]; Day 14, 5 mg once daily): 37.0 ng/mL
Ctrough, Geometric mean ([2]; Day 14, 5 mg once daily): 19.0 ng/mL
Ctrough, Mean ([2]; Day 14, 5 mg once daily): 19.4 ng/mL
tmax, median ([2]; Day 14, 5 mg once daily): 3.00 h
AUC0-24, Geometric mean ([2]; Day 14, 10 mg once daily): 1,490 ng · h/mL
AUC0-24, Mean ([2]; Day 14, 10 mg once daily): 1,550 ng · h/mL
CLR(0-24), Geometric mean ([2]; Day 14, 10 mg once daily): 1.4 L/h
CLR(0-24), Mean ([2]; Day 14, 10 mg once daily): 1.49 L/h
CLss/F, Geometric mean ([2]; Day 14, 10 mg once daily): 5.0 L/h
CLss/F, Mean ([2]; Day 14, 10 mg once daily): 5.13 L/h
Cmax, Geometric mean ([2]; Day 14, 10 mg once daily): 86.0 ng/mL
Cmax, Mean ([2]; Day 14, 10 mg once daily): 89.7 ng/mL
Ctrough, Geometric mean ([2]; Day 14, 10 mg once daily): 47.5 ng/mL
Ctrough, Mean ([2]; Day 14, 10 mg once daily): 49.9 ng/mL
tmax, median ([2]; Day 14, 10 mg once daily): 2.00 h
AUC0-24, Geometric mean ([2]; Day 14, 20 mg once daily): 2,340 ng · h/mL
AUC0-24, Mean ([2]; Day 14, 20 mg once daily): 2,420 ng · h/mL
CLR(0-24), Geometric mean ([2]; Day 14, 20 mg once daily): 2.0 L/h
CLR(0-24), Mean ([2]; Day 14, 20 mg once daily): 2.07 L/h
CLss/F, Geometric mean ([2]; Day 14, 20 mg once daily): 6.4 L/h
CLss/F, Mean ([2]; Day 14, 20 mg once daily): 6.58 L/h
Cmax, Geometric mean ([2]; Day 14, 20 mg once daily): 137 ng/mL
Cmax, Mean ([2]; Day 14, 20 mg once daily): 142 ng/mL
Ctrough, Geometric mean ([2]; Day 14, 20 mg once daily): 69.9 ng/mL
Ctrough, Mean ([2]; Day 14, 20 mg once daily): 73.3 ng/mL
tmax, median ([2]; Day 14, 20 mg once daily): 3.00 h
half-life ([2]; both sexes, human, oral, 5 mg, Day 14, 5 mg once daily, read-out: t1/2, Geometric mean (converted)): 1740 min
half-life ([2]; both sexes, human, oral, 5 mg, Day 14, 5 mg once daily, read-out: t1/2, Mean (converted)): 1760 min
half-life ([2]; both sexes, human, oral, 10 mg, Day 14, 10 mg once daily, read-out: t1/2, Geometric mean (converted)): 1870 min
half-life ([2]; both sexes, human, oral, 10 mg, Day 14, 10 mg once daily, read-out: t1/2, Mean (converted)): 1880 min
half-life ([2]; both sexes, human, oral, 20 mg, Day 14, 20 mg once daily, read-out: t1/2, Geometric mean (converted)): 2070 min
half-life ([2]; both sexes, human, oral, 20 mg, Day 14, 20 mg once daily, read-out: t1/2, Mean (converted)): 2100 min
CL renal ([2]; both sexes, human, urine and plasma, oral, After 14 once-daily doses, 5-20 mg, read-out: Mean CLR(0-24)): 24.8 to 34.5 mL/min
effect of age and gender on accumulation [2, 5]: neither age nor gender affected accumulation
time to steady state [2, 5]: ≤ 5 days
subjects with GL-3 values below LLOQ ([3]; Day 15, 5-mg dose group (3 at baseline)): 9 subjects
subjects with GL-3 values below LLOQ ([3]; Day 15, 10-mg dose group (1 at baseline)): 7 subjects
subjects with GL-3 values below LLOQ ([3]; Day 15, 20-mg dose group (6 at baseline)): 9 subjects
Plasma GL-3 over time ([3]; all Compound 2 dose groups, low baseline values relative to LLOQ): decreased with time
